Reference: patent US20220395553A1, “CXCR4 ANTAGONIST PEPTIDES” (COHBAR, INC., priority 2019, published 2022)
Square brackets hold non-standard residues; d marks the D form. Peptide text beside a SMILES is read from it.

Experiments:
Type in all cases: cell-based
[1] = Cell viability, PrestoBlue assay; settings: human
Procedure: The effect of the peptides on cell viability can be assessed in cultured cells using suitable assay of viability such as the PrestoBlue® assay (Thermo Fisher Scientific, Waltham, Mass.). Peptides were initially prepared as 10 mM stock in DMSO and tested at a final concentration of 10 μM (0.1% DMSO). […] PrestoBlue Assay Reagent was purchased from Thermo Fisher Scientific. A172 human brain glioblastoma cell line was purchased from American Type Culture Collection (Manassas, Va.). A172 cells were grown in DMEM supplemented with 10% FBS with 100 IU/ml penicillin and 100 μg/ml streptomycin. Cultures were maintained at 37° C. in a humidified atmosphere of 5% CO2/95% air. A172 cells were seeded at 8,000 cells per well on 96-well plates. […] Cell viability was determined using a PrestoBlue Assay reagent […] according to the manufacturer's instructions. Absorption for each sample well on the plate was measured using a Cytation 3 plate reader at 560 nm and 590 nm (BioTek, Winooski, Vt.). Activity was calculated relative to 0.1% DMSO untreated control. Treatment with 0.1% DMSO alone was used as the cell viability activity control. The relative standard deviation of the DMSO control was <5%.

C2C12 Mouse Myoblasts = test: Glucose utilization in C2C12 mouse myoblasts; settings: peptide 10 μM, 18-22 hours, relative to 0.1% DMSO treated control cells
Procedure: The effect of the peptides on glucose metabolism can be assessed using an assay of glucose utilization in cultured cultured cells such as mouse myoblasts. Peptides were initially prepared as 10 mM stock in DMSO and used at a final concentration of 10 μM (0.1% DMSO). C2C12 mouse myoblast cell line was purchased from American Type Culture Collection (Manassas, Va.). C2C12 cultures were maintained at 37° C. in a humidified atmosphere of 5% CO2/95% air with medium changes every second day. C2C12 cells were grown in DMEM (1 g/L glucose) supplemented with 10% FBS with 100 IU/ml penicillin and 100 μg/ml streptomycin. C2C12 cells were seeded at 7,000 cells per well on 96-well plates and cultured to confluence. Once the cell reached confluence the media was changed to DMEM (1 g/L glucose) supplemented with 2% HS with 100 IU/ml penicillin and 100 μg/ml streptomycin and maintained at 37° C. in a humidified atmosphere of 5% CO2/95% air, 5 days post-induction of differentiation fresh DMEM (1 g/L glucose) supplemented with 2% HS with 100 IU/ml penicillin and 100 μg/ml streptomycin was added to cultures. Cells were maintained at 37° C. in a humidified atmosphere of 5% CO2 and 95% air for 5 hours. After 5 hours test peptides at 10 μM or controls (0.5 mM or 1 mM metformin in 1% DMSO) prepared in fresh differentiation medium were added to cells and the cultures were maintained at 37° C. in a humidified atmosphere of 5% CO2/95% air for 18-22 hours. At the end of the incubation culture media was removed from the cells and the remaining glucose concentration was measured using a Glucose Assay kit (Abcam) according to the manufacturer's instructions, using a Cytation 3 plate reader at 570 nm (BioTek, Winooski, Vt.). Glucose concentrations in the medium were calculated relative to 0.1% DMSO treated control cells. The relative standard deviation of the result for the 0.1% DMSO treated control was <20%. Metformin was used as a positive control for reduction of glucose levels (increased glucose utilization glucose levels for treatment with metformin (1 mM) treatment were <20% of the 0.1% DMSO treated control value. The results are reported in Table 7.

Rat H-4-II-E Cells = test: TBHP-induced reactive oxygen species (DCFDA); settings: peptide 10 μM 18-20 hours, then TBHP 100 μM 1 hour; relative to TBHP control
Procedure: The protective or synergistic effect of the peptides on cellular levels of reactive oxygen species (ROS) induced by oxidative stress can be assessed using an assay of ROS in cultured cells exposed to a suitable oxidative stress. Peptides were initially prepared as 10 mM stock in DMSO and tested at a final concentration of 10 μM (0.1% DMSO). […] TBHP was used at final concentration of […]. Sulforaphane was used at a final concentration of 10 uM as a protective antioxidant control against TBHP induced ROS production. DCFDA Cellular ROS Detection Assay kit was purchased from […]. H-4-II-E rat liver hepatoma cell line was purchased from American Type Culture Collection (Manassas, Va.). H-4-II-E cells were grown in DMEM supplemented with 10% FBS with 100 IU/ml penicillin and 100 μg/ml streptomycin. Cultures were maintained at 37° C. in a humidified atmosphere of 5% CO2/95% air. H-4-II-E cells were seeded at 15,000-20,000 cells per well on 96-well plates. The next day cells were incubated with test peptides at 10 μM in 0.1% DMSO or sulforaphane at 10 uM and maintained at 37° C. in a humidified atmosphere of 5% CO2/95% air for 18-20 hours. After 18-20 hours of incubation the cells were loaded with DCFDA for 45 min. TBHP at 100 μM was then added to the appropriate wells for 1 hour. ROS activity was determined using a DCFDA Cellular ROS Detection Assay kit (Abcam) according to the manufacturer's instructions. Fluorescence in each sample well on the plate was measured using a Cytation 3 plate reader at Ex/Em=485/535 nm (BioTek, Winooski, Vt.). Activity was calculated relative to TBHP control. […] Activity was calculated relative to THBP treated control.

human CXCR4 = human CXCR4 (Homo sapiens, UniProt P61073); test: IC50 for inhibition of CXCR4 activation, β-Arrestin recruitment (Example 22); set-up: host or cells: C2C12 (mouse myoblast) CXCR4 β-Arrestin PathHunter cell line
Sequence of human CXCR4 (P61073 whole entry, the tested form may be a part): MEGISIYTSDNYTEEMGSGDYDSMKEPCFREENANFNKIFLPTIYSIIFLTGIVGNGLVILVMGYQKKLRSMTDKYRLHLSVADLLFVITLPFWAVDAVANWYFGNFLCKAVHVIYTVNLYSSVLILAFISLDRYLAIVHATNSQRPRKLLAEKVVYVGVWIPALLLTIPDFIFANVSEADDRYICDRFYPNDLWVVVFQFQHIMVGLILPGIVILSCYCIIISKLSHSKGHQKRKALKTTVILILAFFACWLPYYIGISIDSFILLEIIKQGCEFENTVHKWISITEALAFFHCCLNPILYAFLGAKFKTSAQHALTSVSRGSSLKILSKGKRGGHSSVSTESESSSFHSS
How it was run: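 C2C12 cells co-expressing ProLink-tagged human CXCR4 and Enzyme Acceptor-tagged β-arrestin (PathHunter). Peptides tested in 10-point, 3-fold dilutions from 1 μM (1 μM–0.05 nM). Recruitment read by chemiluminescent enzyme-fragment complementation after 90 min incubation.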

| SMILES | viability at 10 μM [1] | Glucose concentration in medium, Percent of Untreated Control (C2C12 Mouse Myoblasts) | TBHP-Induced ROS, Percent of Control (Rat H-4-II-E Cells) | IC50 (human CXCR4) |
| --- | --- | --- | --- | --- |
| CSCC[C@H](N)C(=O)N[C@@H](CC(C)C)C(=O)N[C@@H](CCCNC(=N)N)C(=O)N[C@@H](CCCNC(=N)N)C(=O)N[C@@H](Cc1ccc(O)cc1)C(=O)N[C@@H](Cc1c[nH]cn1)C(=O)N[C@@H](Cc1c[nH]cn1)C(=O)N[C@@H](CO)C(=O)N[C@H](C(=O)N[C@@H](CCCNC(=N)N)C(=O)N[C@@H](CO)C(=O)N[C@@H](CO)C(=O)N[C@@H](CC(C)C)C(=O)N[C@@H](CCCNC(=N)N)C(=O)N1CCC[C@H]1C(=O)N[C@@H](Cc1ccc(O)cc1)C(=O)N[C@H](C(=O)N[C@@H](CCCCN)C(=O)O)[C@@H](C)O)C(C)C [compound 2] (H-MLRRYHHSVRSSLRPYTK-OH; N-terminus and C-terminus assumed) | 96.4% | 126.7% | 90.9% | 11 nM |
| CC(C)C[C@H](NC(=O)[C@H](CO)NC(=O)[C@H](CO)NC(=O)[C@H](CCCNC(=N)N)NC(=O)[C@@H](NC(=O)[C@H](CO)NC(=O)[C@H](Cc1c[nH]cn1)NC(=O)[C@H](Cc1c[nH]cn1)NC(=O)[C@H](Cc1ccc(O)cc1)NC(=O)[C@H](CCCNC(=N)N)NC(=O)[C@H](CCCNC(=N)N)NC(=O)[C@@H](N)CC(C)C)C(C)C)C(=O)N[C@@H](CCCNC(=N)N)C(=O)N1CCC[C@H]1C(=O)N[C@@H](Cc1ccc(O)cc1)C(=O)N[C@H](C(=O)N[C@@H](CCCCN)C(=O)O)[C@@H](C)O [compound 3] (H-LRRYHHSVRSSLRPYTK-OH; N-terminus and C-terminus assumed) | 97.3% | 125.8% | 95.5% | 5 nM |
| CC(C)C[C@H](NC(=O)[C@H](CO)NC(=O)[C@H](CO)NC(=O)[C@H](CCCNC(=N)N)NC(=O)[C@@H](NC(=O)[C@H](CO)NC(=O)[C@H](Cc1c[nH]cn1)NC(=O)[C@H](Cc1c[nH]cn1)NC(=O)[C@H](Cc1ccc(O)cc1)NC(=O)[C@H](CCCNC(=N)N)NC(=O)[C@H](CCC(=O)O)NC(=O)[C@@H](N)CC(C)C)C(C)C)C(=O)N[C@@H](CCCNC(=N)N)C(=O)N1CCC[C@H]1C(=O)N[C@@H](Cc1ccc(O)cc1)C(=O)N[C@H](C(=O)N[C@@H](CCCCN)C(=O)O)[C@@H](C)O [compound 4] (H-LERYHHSVRSSLRPYTK-OH; N-terminus and C-terminus assumed) | 96% | 127.8% | 95.8% | 4 nM |
| CC(C)C[C@H](NC(=O)[C@H](CO)NC(=O)[C@H](CO)NC(=O)[C@H](CCCNC(=N)N)NC(=O)[C@@H](C)NC(=O)[C@H](CO)NC(=O)[C@H](Cc1c[nH]cn1)NC(=O)[C@H](Cc1c[nH]cn1)NC(=O)[C@H](Cc1ccc(O)cc1)NC(=O)[C@H](CCCNC(=N)N)NC(=O)[C@H](CCC(=O)O)NC(=O)[C@@H](N)CC(C)C)C(=O)N[C@@H](CCCNC(=N)N)C(=O)N1CCC[C@H]1C(=O)N[C@@H](Cc1ccc(O)cc1)C(=O)N[C@H](C(=O)O)[C@@H](C)O [compound 5] (H-LERYHHS[dA]RSSLRPYT-OH; N-terminus and C-terminus assumed) | 98.8% | 128.3% | 99.2% |  |
